Laboratory results as given in patent US7179461B2, “Plasminogen activator to prevent corneal and subepithelial haze after laser vision correction surgery” (The Johns Hopkins University, priority 2000, dated 2007).
Read-outs that look alike come from different tables or passages of the source.

What was measured:
corneal haze after PRK = settings: rabbits, excimer laser PRK; cited from earlier work
[1] = test system: rabbit corneal endothelium; settings: perfused in vitro for three hours, concentrations up to 5,000 IU/ml; cited from earlier work
[2] = biological target: T1, urokinase-type plasminogen activator (uPA) in rabbit tears (Oryctolagus cuniculus, UniProt Q8MHY7); assay: Plasminogen activator activity in rabbit tears after PRK, spectrophotometric method with human plasminogen and S-2251; type: in vivo, New Zealand rabbits
T1 construct: from tissue; host or cells: rabbit tear fluid collected with glass capillaries
T1 sequence (Q8MHY7 17-433): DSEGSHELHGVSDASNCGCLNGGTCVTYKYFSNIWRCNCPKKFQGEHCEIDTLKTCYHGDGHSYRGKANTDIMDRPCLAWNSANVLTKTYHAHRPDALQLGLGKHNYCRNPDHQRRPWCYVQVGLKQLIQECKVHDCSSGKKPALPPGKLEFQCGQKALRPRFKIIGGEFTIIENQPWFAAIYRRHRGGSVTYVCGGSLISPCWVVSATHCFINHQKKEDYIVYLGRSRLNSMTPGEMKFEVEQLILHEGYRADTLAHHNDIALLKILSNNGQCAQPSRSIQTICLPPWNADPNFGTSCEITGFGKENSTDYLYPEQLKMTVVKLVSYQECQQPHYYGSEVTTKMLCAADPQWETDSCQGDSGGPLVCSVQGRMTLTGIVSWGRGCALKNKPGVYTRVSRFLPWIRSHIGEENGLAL
Method: Both eyes in each of 8 rabbits underwent PRK treatment. One eye of each rabbit was treated with a serine protease inhibitor (SPI) over the first 7 days to inactivate uPA in the tears and on the surface of the cornea. uPA in the tear samples was measured by a spectrophotometric method using human plasminogen and chromogenic peptide substrate S-2251.
Materials and Methods Sixteen eyes of eight normal healthy New Zealand rabbits (3.0–3.5 kg) underwent PRK surgery for spherical correction using the Schwind Keratom II ArF excimer laser (193 nm), performed by the same surgeon at Vital-Laser LLC, Department of Ophthalmology, University Medical School of Debrecen. Animals were handled and treated in adherence to the ARVO Statement for the Use of Animals in Ophthalmic and Vision Research. De-epithelialization was performed with a blunt Keratome Blade knife after epithelial marking with a 6.0–6.5 mm Hoffer trephine. The epithelium was scraped gently from periphery to center. Residual epithelial debris was removed with a sterile microsponge.
Topical anesthetic (0.4% oxybuprocaine hydrochloride) eye drops were administered twice before the surgery. General anesthesia was accomplished by intravenous injection of ketamine-xylazine (2.2:1 ratio, 10 mg/kg). The PRK surgeries were performed on the morning of day 1. The postoperative treatment included antibiotic eye drops, Ciloxan (Alcon), twelve times (hourly) on day 1 and five times (every two hours) on five additional days (postoperative days 2–5 and 7). FLUCON™ (Alcon) and TEARS NATURALE™ (Alcon) were given 5 times daily (every two hours) during the first postoperative month, reduced to 4 times daily (every three hours) for the second month and 3 times daily (every four hours) for the third month. All rabbits received follow-up examinations at 1, 3 and 6 months following the PRK procedure.
In addition, the left eye of each rabbit received 1 drop of 10,000 KIE/ml serine protease inhibitor (SPI), aprotinin (Gordox, Richter Gideon Rt., Budapest), twelve times (hourly) on day 1 and five times (every two hours) on five additional days (postoperative days 2–5 and 7). This was designated the “With-SPI” group. The right eyes were not treated with SPI and were designated the “No-SPI” group. After the seventh day, identical treatment was used on both eyes. No other treatment was used during the six month follow-up period. […] Lottenberg R, Sjak-Shie N, Fazleabas A T, Roberts R M. Aprotinin inhibits urokinase but not tissue-type plasminogen activator. Thromb Res 1988;49:549–556; and Fritz H, Wunderer G. Biochemistry and applications of aprotinin, the kallikrein inhibitor from bovine organs. Arzneim Forsch 1983;33:479–494.
Tear samples for plasminogen activator activity analyses were obtained on the day before the PRK surgery (day 0). Tear samples were collected within minutes after PRK (day 1), before treatment with any eye drops. Daily on postoperative days 2–5, on postoperative day 7 and every fourth day thereafter for three months (91 days), tears were sampled in the morning prior to the administration of any eye drops on the given day so that SPI treatment would not change the uPA levels.
Samples consisted of tears collected with glass capillaries using i.m. injection of pilocarpine hydrochloride (5 mg/kg) for stimulation. Tears were taken from the lower tear meniscus and care was taken not to touch the conjunctiva. The same collection method was used throughout the study. The duration of the sampling time was recorded and the secretion rate was calculated in μl/min, dividing the obtained tear volume by the time of sample collection. Samples used in this investigation had secretion rates of 15–50 μl/min. Samples were centrifuged (1800 rpm) for 8–10 minutes right after sample collection and supernatants were immediately deep-frozen at −80° C. and were thawed only once for measurements. […]

[3] = biological target: urokinase-type plasminogen activator (Homo sapiens, UniProt P00749); settings: cited from earlier work

## CO[C@@]12[C@H](COC(N)=O)C3=C(C(=O)C(C)=C(N)C3=O)N1C[C@@H]1N[C@@H]12 [mitomycin C]
Corneal haze after PRK
  Effect on corneal haze after PRK: reduce haze after PRK

## urokinase
[1]
  Endothelial mosaic under scanning electron microscopic scrutiny: retains a normal endothelial mosaic
  Swelling of rabbit corneas: does not induce meaningful swelling
  Toxicity to rabbit corneal endothelium: non-toxic

## aprotinin [SPI]
[2]; SPI-treated rabbit eyes, SPI over first 7 days
  Day by which mean uPA levels returned to preoperative levels: 15 days
[2]; SPI-treated rabbit eyes, period of SPI suppression
  uPA activity, mean value averaged over days 1–7: 0.13 (0.15) IU/ml
[2]; SPI-treated rabbit eyes, versus days 19–91 level, p<0.001
  Mean uPA activity on days 1–7 lower than the equilibrium plasminogen activator activity level: 95%
[2]; averaged over days 19–91, rabbit tears
  PAA: With-SPI, mean (SD), equilibrium level: 2.88 (0.22) IU/ml
[2]; day 0 (day before PRK, before SPI), rabbit tears, 8 eyes
  PAA: With-SPI, mean (SD): 2.77 (0.26) IU/ml
[2]; day 1 (within minutes after PRK, before eye drops), rabbit tears
  PAA: With-SPI, mean (SD): 0.42 (0.47) IU/ml
[2]; day 2, rabbit tears, sampled in the morning before SPI drops, 10,000 KIE/ml SPI
  PAA: With-SPI, mean (SD): 0.18 (0.21) IU/ml
[2]; day 3, rabbit tears, sampled before SPI drops
  PAA: With-SPI, mean (SD): 0.04 (0.03) IU/ml
[2]; day 4, rabbit tears, sampled before SPI drops
  PAA: With-SPI, mean (SD): 0.03 (0.04) IU/ml
[2]; day 5, rabbit tears, sampled before SPI drops
  PAA: With-SPI, mean (SD): 0.05 (0.05) IU/ml
[2]; day 7, rabbit tears, sampled before SPI drops
  PAA: With-SPI, mean (SD): 0.05 (0.04) IU/ml
[2]; day 11 (after end of SPI treatment), rabbit tears
  PAA: With-SPI, mean (SD): 2.63 (0.18) IU/ml
[2]; day 15, rabbit tears
  PAA: With-SPI, mean (SD): 2.76 (0.18) IU/ml
[3]
  Inhibition of plasminogen activator (urokinase) activity: effective inhibitor of plasminogen activator activity
[3]; listed as Aprotinin
  Inhibition of plasminogen activator (urokinase) activity: especially effective for inhibiting urokinase
